This test has as its system Human immunodeficiency virus 1. As to the kind of experiment: Antiviral activity against HIV1 3B infected in HeLa cells expressing CD4/CCR5/beta-Gal after 48 hrs by MAGI assay. The format is functional, organism-based. The settings on record: Human immunodeficiency virus 1, 3B.

Each structure is given as a SMILES string.

Broadly, the EC50 is the concentration that produces a half-maximal response. A lower EC50 goes with a more potent agent. As to `C#CCOCc1ccc(C(=O)c2ccc(-c3ccc4c(c3)SC(=N)N3CCCN=C43)cc2)cc1`, a half-maximal effect (EC50) was put at 0.64 µM.

As for `N=C1Sc2cc(-c3ccc(C(=O)c4ccc(COC(=O)NCCOCCOCCOCCNC(=O)CCCC[C@@H]5SC[C@@H]6NC(=O)N[C@@H]65)cc4)cc3)ccc2C2=NCCCN12`, the concentration for a half-maximal effect (EC50) is 6.87 µM.

`N=C1Sc2cc(Br)ccc2C2=NCC3(CCN(C(=O)OCc4ccc(C(=O)c5ccc(COC(=O)NCCOCCOCCOCCNC(=O)CCCC[C@@H]6SC[C@@H]7NC(=O)N[C@@H]76)cc5)cc4)CC3)CN12` yielded an EC50 of 5.11 µM.
